Results on twelve compounds are retold here after PubChem BioAssay (NCI).

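Grown in 96-well plates, cells were treated for 48 hours with each compound at five concentrations. Insufficient inhibition: endpoint recorded as highest concentration tested. The concentration for 50% growth inhibition is given as GI50. At the TGI there is no net growth.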 Bounds are passed on as bounds.

Among the test systems are 786-0 renal; COLO 205 colon; DU-145 prostate; HCC-2998 colon; HCT-116 colon; K-562 leukemia; M14 melanoma; MCF7 breast; MDA-MB-231 breast; MDA-MB-435; NCI-H460 lung; OVCAR-5 ovarian; PC-3 prostate; RPMI-8226 leukemia; RXF 393 renal; SN12C renal; SNB-19 CNS; U251 CNS; HOP-62 NSCLC.
Common to all, as to experiment: inhibition of tumour cell growth, NCI panel, 48 h

As for `CC(C)(C)n1c(=O)n2c(-c3ccccc3)c(-c3ccccc3)n2c1=O`, the TGI with 786-0 renal, with COLO 205 colon, in the test with DU-145 prostate, with HCC-2998 colon, with HCT-116 colon and in the test with K-562 leukemia was > 100 µM in each case. Further, the TGI in the test with M14 melanoma, in the test with MCF7 breast, in the test on MDA-MB-231 breast, with MDA-MB-435, in the test with NCI-H460 lung and in the test with OVCAR-5 ovarian was > 100 µM each time. The TGI in the test with PC-3 prostate is > 100 µM; in the test with RPMI-8226 leukemia it was 61.1 µM; in the test on RXF 393 renal it was > 100 µM; in the test with SN12C renal, > 100 µM; in the test with SNB-19 CNS it was > 100 µM; in the test on U251 CNS, > 100 µM.
For `COc1ccc(/C=C2\C[C@H]3[C@@H]4CC=C5C[C@@H](O)CC[C@]5(C)[C@H]4CC[C@]3(C)\C2=N\O)cc1`, the TGI in the test with 786-0 renal is 44.3 µM; in the test on COLO 205 colon, 29 µM; in the test with DU-145 prostate it was 71.5 µM; in the test on HCT-116 colon, 29.3 µM; in the test with HOP-62 NSCLC, > 100 µM; in the test on K-562 leukemia it was 45.9 µM. For the same compound, the TGI in the test on M14 melanoma is 40.3 µM; in the test with MCF7 breast, > 100 µM; with MDA-MB-231 breast, > 100 µM; in the test with MDA-MB-435, > 100 µM; in the test on NCI-H460 lung, > 100 µM; in the test on PC-3 prostate, > 100 µM. Moreover, the TGI in the test with RPMI-8226 leukemia was 21.9 µM; in the test on RXF 393 renal, > 100 µM; with SN12C renal it was 44.4 µM; with SNB-19 CNS, > 100 µM; in the test with U251 CNS, > 100 µM.
`COC(=O)[C@@H]1Cc2ccc(OC)c(c2)OCCC(=O)N1`: the TGI in the test with 786-0 renal, in the test with COLO 205 colon, in the test with DU-145 prostate, with HCC-2998 colon, in the test with HCT-116 colon and in the test on HOP-62 NSCLC was > 100 µM throughout. The TGI in the test with K-562 leukemia, with M14 melanoma, in the test on MCF7 breast, with MDA-MB-231 breast, in the test with MDA-MB-435 and in the test with OVCAR-5 ovarian was > 100 µM in each case. For the same compound, the TGI in the test with PC-3 prostate, with RPMI-8226 leukemia, with RXF 393 renal, in the test with SNB-19 CNS and with U251 CNS was > 100 µM each time.
As for `COC(=O)C1=C(OC)C(=P2(c3ccccc3)CC(c3ccccc3)=C2c2ccccc2)C(C(=O)OC)=C1C(=O)OC` (stereo not drawn), the TGI with 786-0 renal is > 100 µM; in the test with COLO 205 colon, > 50.5 µM; in the test on DU-145 prostate, > 100 µM; in the test on HCC-2998 colon, > 100 µM; in the test on HCT-116 colon, > 100 µM; in the test with HOP-62 NSCLC, > 100 µM. Besides, the TGI in the test with M14 melanoma is > 100 µM; with MCF7 breast, > 82.6 µM; in the test on MDA-MB-231 breast, > 100 µM; with MDA-MB-435, > 100 µM; in the test with NCI-H460 lung, > 81.7 µM; with OVCAR-5 ovarian, > 100 µM. Further, the TGI was > 100 µM with PC-3 prostate; > 31.2 µM in the test with RPMI-8226 leukemia; > 100 µM in the test on RXF 393 renal; > 100 µM in the test with SN12C renal; > 100 µM in the test on SNB-19 CNS; > 100 µM in the test with U251 CNS.
In the case of `CC(=O)Oc1ccc(-c2nnc(-c3ccc(OC(C)=O)cc3)nn2)cc1`, the TGI in the test on 786-0 renal, in the test on COLO 205 colon, in the test with DU-145 prostate, in the test on HCT-116 colon, with HOP-62 NSCLC and in the test with K-562 leukemia was > 100 µM in each case. Also, the TGI with M14 melanoma, in the test on MCF7 breast, with MDA-MB-231 breast, with MDA-MB-435, with NCI-H460 lung and in the test with OVCAR-5 ovarian was > 100 µM each time. Besides, the TGI in the test on PC-3 prostate, with RPMI-8226 leukemia, in the test on RXF 393 renal, with SN12C renal, in the test with SNB-19 CNS and in the test on U251 CNS was > 100 µM throughout.
In the case of `O[C@@H]1[C@H](OC2c3ccccc3-c3ccccc32)[C@H](OCc2ccccc2)[C@@H]2OC[C@H]1O2`, the TGI with 786-0 renal is 42.1 µM; with COLO 205 colon, > 100 µM; in the test with DU-145 prostate it was > 100 µM; with HCC-2998 colon, > 100 µM; in the test on HCT-116 colon, > 100 µM; in the test with HOP-62 NSCLC, 80 µM. Further, the TGI with K-562 leukemia, in the test with M14 melanoma, with MCF7 breast, in the test on MDA-MB-231 breast, in the test with MDA-MB-435 and with OVCAR-5 ovarian was > 100 µM throughout. Besides, the TGI with PC-3 prostate, in the test on RPMI-8226 leukemia, in the test on RXF 393 renal, in the test on SN12C renal, with SNB-19 CNS and in the test with U251 CNS was > 100 µM in each case.
Regarding `NCCc1ccc(S(=O)(=O)O)cc1[N+](=O)[O-]`, the TGI with 786-0 renal, in the test on COLO 205 colon, in the test with DU-145 prostate, with HCT-116 colon, in the test on HOP-62 NSCLC and in the test on K-562 leukemia was > 100 µM each time. Also, the TGI in the test with M14 melanoma, in the test on MCF7 breast, in the test on MDA-MB-231 breast, in the test with MDA-MB-435, in the test on NCI-H460 lung and in the test on OVCAR-5 ovarian was > 100 µM in each case. The TGI in the test with PC-3 prostate, in the test on RPMI-8226 leukemia, in the test on RXF 393 renal, in the test with SN12C renal, in the test on SNB-19 CNS and in the test on U251 CNS was > 100 µM each time.
For the compound `N/C(=N\N=C\c1nc2ccccc2o1)c1cnccn1`, the TGI with 786-0 renal, with COLO 205 colon, in the test on DU-145 prostate, in the test with HCT-116 colon, with HOP-62 NSCLC and in the test with K-562 leukemia was > 100 µM in each case. Moreover, the TGI in the test with M14 melanoma, in the test on MCF7 breast, in the test on MDA-MB-231 breast, with MDA-MB-435, in the test with NCI-H460 lung and in the test on OVCAR-5 ovarian was > 100 µM throughout. For the same compound, the TGI in the test on PC-3 prostate, with RPMI-8226 leukemia, with RXF 393 renal, in the test with SN12C renal, in the test on SNB-19 CNS and with U251 CNS was > 100 µM in each case.
With `CCOC(=O)c1nc2ccc(C(F)(F)F)cc2nc1Oc1ccc(OC)cc1`, the TGI in the test on 786-0 renal, in the test with COLO 205 colon, in the test with DU-145 prostate, with HCT-116 colon, in the test with HOP-62 NSCLC and in the test on K-562 leukemia was > 100 µM in each case. The TGI in the test on M14 melanoma, in the test on MCF7 breast, with MDA-MB-231 breast, in the test with MDA-MB-435, with NCI-H460 lung and with OVCAR-5 ovarian was > 100 µM each time. Besides, the TGI in the test with PC-3 prostate, with RPMI-8226 leukemia, in the test with RXF 393 renal, in the test with SN12C renal, in the test with SNB-19 CNS and in the test with U251 CNS was > 100 µM throughout.
In the case of `O=[N+]([O-])c1ccc2c3c1[C@@H]1O[C@@H]1c1cccc(c1-3)[C@@H]1O[C@H]21`, the TGI is 7.85 µM in the test on 786-0 renal; 23.1 µM with COLO 205 colon; 8.72 µM in the test with DU-145 prostate; 5.95 µM in the test on HCT-116 colon; 34.4 µM in the test with HOP-62 NSCLC; > 100 µM with K-562 leukemia. For the same compound, the TGI with M14 melanoma is 9.9 µM; with MCF7 breast, > 100 µM; with MDA-MB-231 breast, 15.3 µM; in the test with MDA-MB-435, 5.22 µM; in the test on OVCAR-5 ovarian, 31.3 µM; with PC-3 prostate it was > 28.5 µM. Further, the TGI in the test on RPMI-8226 leukemia was > 100 µM; in the test on RXF 393 renal, 16.8 µM; in the test on SN12C renal, 15.7 µM; with SNB-19 CNS it was > 58.5 µM; in the test on U251 CNS it was 11.8 µM. In addition, the GI50 with SN12C renal is 3.36 µM.
Turning to `Nc1nccc(NCC2(CO)CC(CCc3ccccc3)C2)n1` (stereo not drawn), the TGI with 786-0 renal is 27.8 µM; in the test with COLO 205 colon, 29.5 µM; with DU-145 prostate it was 30.6 µM; in the test on HCC-2998 colon, 35.9 µM; in the test with HCT-116 colon, 23 µM; in the test on HOP-62 NSCLC it was 38 µM. In addition, the TGI in the test with K-562 leukemia came to 45.5 µM; in the test on MCF7 breast, 22.2 µM; in the test on MDA-MB-231 breast, 48.9 µM; in the test with MDA-MB-435, 28.7 µM; in the test with NCI-H460 lung, 28.4 µM; with OVCAR-5 ovarian, 34.2 µM. Besides, the TGI in the test with PC-3 prostate was 31.9 µM; in the test with RPMI-8226 leukemia, 51 µM; in the test on RXF 393 renal, 36 µM; with SN12C renal, 60.2 µM; in the test on U251 CNS, 28.7 µM.
With `c1ccc(C(NC2=NCCO2)C2CC2)cc1` (stereo not drawn), the TGI in the test with 786-0 renal, in the test with COLO 205 colon, in the test on DU-145 prostate, in the test with HCC-2998 colon, with HCT-116 colon and with HOP-62 NSCLC was > 100 µM throughout. The TGI in the test with M14 melanoma, in the test with MCF7 breast, in the test on MDA-MB-231 breast, with MDA-MB-435, in the test on NCI-H460 lung and in the test on OVCAR-5 ovarian was > 100 µM in each case. In addition, the TGI in the test with PC-3 prostate, with RPMI-8226 leukemia, in the test on RXF 393 renal, in the test on SN12C renal, with SNB-19 CNS and in the test on U251 CNS was > 100 µM throughout.
